Experimental data from patent publication US6852735B1, “Siastatin B derivatives having a glycosidase inhibitory activity and processes for producing the same” (Zaidan Hojin Biseibutsu Kagaku Kenkyu Kai, priority 1998, dated 2005).

Experiments:
[1] = tested on: β-D-glucosidase (from almond); assay: β-glucosidase inhibition (Test Example 4); assay type: biochemical; details: for inhibition of β-D-glucosidase, in words: summary of Table 1; for 50% inhibiory concentration (IC50) Enzyme E: β-D-glucosidase from almond, substrate p-nitrophenyl-β-D-glucoside
Method: (§1) Thus, 0.5 mL of 0.025M citrate-phosphate buffer (pH 4.0), 0.1 mL of the same buffer containing 10 mM p-nitro-phenyl-N-acetyl-α-D-galactosaminide dissolved therein, and 0.1 mL of either water or an aqueous solution containing as the test compound any one of the compounds of the formulae (I), (V) and (X) according to this invention were mixed with each other and pre-incubated in a 96-wells titer plate at 37° C. for 10 minutes. After the completion of the pre-incubation, to the pre-incubated mixture was added 0.01 mL of 0.025 M citrate-phosphate buffer containing α-N-acetyl-galactosaminidase originated from chicken liver (a product of Sigma Company) which was dissolved in said buffer as a glycosidase to be tested. Thereafter, the enzymatic reaction was conducted at 37° C. for 30 minutes.
(§2) After the enzymatic reaction, to the reaction solution was added 1.0 mL of 0.3M glycine—sodium hydroxide buffer (pH 10.5), in order to terminate the enzymatic reaction. Thereafter, the absorbance [designated as value (a)] of light at 405 nm of the resulting reaction solution was measured. Concurrently, measurement was made of the absorbance [designated as value (b)] at 405 nm of the reaction solution as obtained in the control test where the enzymatic reaction was conducted without addition of the test compound. Further, measurements were made of the absorbance [designated as values (a′)] and the absorbance [[designated as values (b′)] at 405 nm of the solutions as obtained in the blank test and the control test, respectively, where the enzymatic reaction was not conducted in the assay test. The rate of inhibition to […] was calculated by the equation: [1-(a-a′)/(b-b′)]×100.
(§3) The test results obtained are summarized as IC50 value in Table 1 below.
This Test Example is a test example for determining the α-glucosidase or β-glucosidase-inhibitory activity of the compound of the formula (I), (V) or (X) according to this invention.
The evaluation of the β-glucosidase-inhibitory activity was conducted according to a modification of the method described in the “Agricultural and Biological Chemistry”, 26, p.203 (1962).
Namely, the test was conducted in the same manner as the test for the enzyme-inhibitory activity described in Test Example 1, but with using α-glucosidase originated from yeast or β-glucosidase originated from almond (both enzymes are products of Sigma Company) as the glycosidase enzyme, and with using p-nitro-phenyl-α-D-glucoside or p-nitrophenyl-β-D-glucoside as the substrate. Furthermore, absorbances of light were measured in the same manner as in Test Example 1, and IC50 values of the test compound capable of giving the 50% inhibition to the enzyme were calculated.

[2] = molecular target: T1, α-D-mannosidase (from jack bean) (Canavalia ensiformis, UniProt C0HJB3); assay: α-mannosidase inhibition (Test Example 5); assay type: biochemical; details: for IC50: α-D-mannosidase from jack bean, substrate p-nitrophenyl-α-D-mannoside, sodium acetate buffer pH 4.5, read-out: 50% inhibiory concentration (IC50) Enzyme G (converted); for inhibition of α-D-mannosidase, in words: summary of Table 1
T1 sequence (C0HJB3 1-981): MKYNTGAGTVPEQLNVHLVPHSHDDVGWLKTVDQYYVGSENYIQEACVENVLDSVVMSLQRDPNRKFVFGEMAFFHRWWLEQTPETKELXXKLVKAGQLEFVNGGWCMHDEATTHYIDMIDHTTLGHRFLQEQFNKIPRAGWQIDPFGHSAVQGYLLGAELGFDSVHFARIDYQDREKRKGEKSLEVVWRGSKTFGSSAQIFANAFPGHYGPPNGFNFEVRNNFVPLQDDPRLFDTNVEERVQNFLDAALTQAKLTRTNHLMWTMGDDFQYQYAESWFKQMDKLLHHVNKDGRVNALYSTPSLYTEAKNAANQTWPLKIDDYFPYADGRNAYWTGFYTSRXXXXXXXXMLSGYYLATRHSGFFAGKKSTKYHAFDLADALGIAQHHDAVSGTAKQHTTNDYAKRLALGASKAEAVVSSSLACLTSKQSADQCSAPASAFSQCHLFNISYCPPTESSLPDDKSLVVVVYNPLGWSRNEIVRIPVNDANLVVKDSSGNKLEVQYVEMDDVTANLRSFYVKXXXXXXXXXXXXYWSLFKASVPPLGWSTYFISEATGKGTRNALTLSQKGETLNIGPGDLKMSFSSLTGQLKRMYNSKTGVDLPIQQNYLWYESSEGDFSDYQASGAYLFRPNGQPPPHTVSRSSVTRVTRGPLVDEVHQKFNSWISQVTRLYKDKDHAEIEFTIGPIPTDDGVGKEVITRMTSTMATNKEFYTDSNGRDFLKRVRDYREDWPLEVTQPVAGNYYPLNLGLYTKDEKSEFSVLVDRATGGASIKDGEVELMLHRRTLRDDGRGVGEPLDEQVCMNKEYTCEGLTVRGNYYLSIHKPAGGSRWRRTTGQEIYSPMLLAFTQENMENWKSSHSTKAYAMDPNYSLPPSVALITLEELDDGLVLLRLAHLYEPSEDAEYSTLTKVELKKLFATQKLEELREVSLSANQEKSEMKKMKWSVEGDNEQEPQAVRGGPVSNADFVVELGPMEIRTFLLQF
Method: as §1, §2, §3
This Test Example is a test example for determining the α-mannosidase or β-mannosidase-inhibitory activity of the compounds according to this invention.
The evaluation of the β-mannosidase-inhibitory activity was conducted according to a modification of the method described in the “Journal of Biological Chemistry”, 242, p.5474 (1967).
Namely, the test was conducted in the same manner as the test for the enzyme-inhibitory activity test described in Test Example 1, but with using α-mannosidase from jack bean or β-mannosidase from snail (both enzymes are products of Sigma Company) as the glycosidase enzyme, with using 0.05 M sodium acetate—acetate buffer (pH 4.5) as the buffer, and with using p-nitrophenyl-α-D-mannoside or p-nitrophenyl-β-D-mannoside as the substrate. Furthermore, absorbances of light were measured in the same manner as in Test Example 1. IC50 values of the test compound capable of giving the 50% inhibition to the enzymes were calculated.

`O=C(N[C@H]1NC[C@H](CO)[C@H](O)[C@@H]1O)C(F)(F)F` [Formula (I), 6-deacetamido-3-decarboxy-3-hydroxymethyl-6-trifluoroacetamido-siastain B] was tested, and the “inhibition of β-D-glucosidase, in words” value [1] was “inhibit strongly”, the “50% inhibiory concentration (IC50) Enzyme E” value (“50% inhibiory concentration” below) [1] was 0.14 mg/L and the IC50 [2] was greater than 387 µM.

In the case of `CC(=O)NC1NCC(CO)C(O)C1O` (stereo not drawn) [Formula (V), 3-decarboxy-4-epi-3-hydroxymethyl-siastain B], the “inhibition of β-D-glucosidase, in words” value [1] is reported as “inhibit strongly”, the “50% inhibiory concentration” value [1] is reported as 1.4 mg/L and the “inhibition of α-D-mannosidase, in words” value [2] is reported as “inhibit strongly”. The IC50 [2] was 318 µM.

With `O=C(N[C@H]1NC[C@H](CO)[C@@H](O)[C@@H]1O)C(F)(F)F` [Formula (X), 6-deacetamido-3-decarboxy-4-epi-3-hydroxymethyl-6-trifluoroacetamido-siastain B] the “inhibition of β-D-glucosidase, in words” value [1] was “inhibit strongly”, the “50% inhibiory concentration” value [1] was 0.13 mg/L and the “inhibition of α-D-mannosidase, in words” value [2] was “inhibit strongly”. The IC50 [2] was 2.9 µM.
